Data reported in article PMC11742122, “Therapeutic Potential of Crocin and Nobiletin in a Mouse Model of Dry Eye Disease: Modulation of the Inflammatory Response and Protection of the Ocular Surface” (Iranian Journal of Pharmaceutical Research : IJPR, 2024).
Marks after values point to notes of the source that are not given here.

Columns and labels:
HEK-293 cells = assay: MTT cell viability assay; format: cell-based; details: Homo sapiens, HEK293, 48-hour treatment
Procedure: The HEK-293 cell line was acquired from the National Cell Bank of Iran, situated at the Pasteur Institute in Tehran. These cells were propagated in Roswell Park Memorial Institute (RPMI) medium, supplemented with 10% fetal bovine serum (FBS), 100 units/mL penicillin, and 100 μg/mL streptomycin. The culture conditions maintained were a humidified incubator set at 37°C, with 5% CO2 and 95% humid air. The culture medium was replenished twice per week until the cells reached 80 - 90% confluency. Subsequently, the cells were dissociated using trypsin and subcultured for passaging and cryopreservation. All experiments were conducted using cells within the passage number range of 3 - 6. Cells were routinely tested for mycoplasma contamination using Hoechst staining. Briefly, cells were fixed and stained with Hoechst 33258 dye, which binds to DNA. Samples were then examined under a fluorescence microscope for the presence of extranuclear DNA, indicative of mycoplasma infection. All cell cultures used in this study were confirmed to be mycoplasma-negative. […] In this study, (1 × 10^4) Hek-293 cells were seeded per well in 96-well plates. […] The measurement of absorbance was performed at an optical density (OD) of 570 nm. Cell viability was assessed by comparing the absorbance values of the drug-treated cells to those of untreated control cells. […]

TNF-α = TNF-α concentration in LPS-stimulated HEK-293 cell line; format: cell-based; details: HEK-293 cells, LPS 1 μg/mL, 48 hours; for TNF-α concentration, higher dose versus lower dose: crocin 68 μM, nobiletin 65.5 μM; for TNF-α concentration (anti-inflammatory effect): crocin 34 and 68 μM, nobiletin 32.75 and 65.5 μM, vs LPS group
Procedure: Figure 3. Tumor necrosis factor-alpha (TNF-α) concentration in HEK-293 cells treated with LPS (1 μg/mL) for 48 hours.

rabbit eye = assay: Eye irritation test (Draize test) in rabbits' eyes
Procedure: To assess the ocular toxicity of the two compounds, crocin and nobiletin, an in vivo eye irritation test was conducted. The concentrations evaluated were strategically chosen based on the respective IC50 of each compound. Specifically, the concentrations tested included the IC50 value itself, as well as concentrations at one-half and one-quarter of the IC50 value. This approach allowed for a comprehensive evaluation of the potential eye irritation caused by varying levels of exposure to these compounds. The experimental protocol involved the preparation of stock solutions for crocin and nobiletin using DMSO as the solvent at high concentrations. These stock solutions were then diluted with an artificial tear solution to obtain the desired treatment doses for instillation into the eye conjunctiva of the test subjects. Subsequently, the team meticulously observed and recorded any occurrences of eye symptoms, focusing on the iris, cornea, and conjunctiva over periods of 1, 24, 48, and 72 hours ([18]).

Row | Compound | IC50 (HEK-293 cells) [µM] | TNF-α concentration, higher dose versus lower dose (TNF-α) | TNF-α concentration (anti-inflammatory effect) (TNF-α) | highest safe concentration (rabbit eye; rabbit eye irritation test) | ocular observations (rabbit eye; rabbit, in vivo) | highest safe concentration (rabbit eye; rabbit, in vivo, 72 h)
1 | CC(/C=C/C=C(\C)C(=O)O[C@@H]1O[C@H](CO[C@@H]2O[C@H](CO)[C@@H](O)[C@H](O)[C@H]2O)[C@@H](O)[C@H](O)[C@H]1O)=C\C=C\C=C(C)\C=C\C=C(/C)C(=O)O[C@@H]1O[C@H](CO[C@@H]2O[C@H](CO)[C@@H](O)[C@H](O)[C@H]2O)[C@@H](O)[C@H](O)[C@H]1O [Crocin] | 136 | superior anti-inflammatory efficacy compared to their lower-dose counterparts | exhibited anti-inflammatory properties at all tested concentrations | 34 ^a µM | ocular turbidity was observed, along with mild conjunctival hyperemia | 
2 | COc1ccc(-c2cc(=O)c3c(OC)c(OC)c(OC)c(OC)c3o2)cc1OC [Nobiletin] | 131 | superior anti-inflammatory efficacy compared to their lower-dose counterparts | exhibited anti-inflammatory properties at all tested concentrations |  | ocular turbidity was observed, along with mild conjunctival hyperemia | 32.75 ^a µM
